The results in this text go back to PubChem BioAssay (NCI).

Test systems include HCT-116 colon; LOX IMVI melanoma; HS 578T breast; OVCAR-5 ovarian; A498 renal; NCI-H226 lung; HOP-92 NSCLC; UACC-257 melanoma.
What all share (test): NCI tumour cell line growth inhibition, 48 h

The structures appear in SMILES notation.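 Exposure lasted 48 hours, with cells grown in 96-well plates and compounds tested at five concentrations. GI50: concentration for 50% inhibition of growth. TGI is the concentration that stops growth completely.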

Consider `CCOC1Oc2ccc(C)cc2C(=O)/C1=C\Nc1ccc(S(N)(=O)=O)cc1` (centres undefined), for which the GI50 in the test with HCT-116 colon was 6.62 µM; with LOX IMVI melanoma it was 13.7 µM; in the test with HS 578T breast it was 14.5 µM; in the test on OVCAR-5 ovarian it was 0.0219 µM; with A498 renal it was 17 µM; in the test with NCI-H226 lung it was 22.3 µM. For the same compound, in the test with HOP-92 NSCLC, the GI50 was 8.9 µM. Besides, the TGI with HCT-116 colon is 14.9 µM; with LOX IMVI melanoma it was greater than 50 µM; in the test on HS 578T breast it was 42.6 µM; with OVCAR-5 ovarian it was 14.1 µM; with A498 renal, 46.5 µM; in the test on NCI-H226 lung, greater than 50 µM. For the same compound, the TGI with HOP-92 NSCLC was determined as 29.6 µM.

For `OCCN(CO)CO`, the TGI with HCT-116 colon, in the test with HS 578T breast, in the test on A498 renal, in the test on NCI-H226 lung, in the test with HOP-92 NSCLC and in the test with UACC-257 melanoma was greater than 100 µM throughout.

With `COc1cc(N(C)C)c(OC)cc1C=C1C=CC=C1`, the TGI with HCT-116 colon, in the test with HS 578T breast, with OVCAR-5 ovarian, in the test on A498 renal, in the test with NCI-H226 lung and in the test with HOP-92 NSCLC was greater than 100 µM each time.

`O=C(O)c1ccccc1NCn1c(=S)sc2ccccc21`: the TGI with HCT-116 colon is greater than 100 µM; in the test on LOX IMVI melanoma, 43.4 µM; in the test with HS 578T breast, greater than 100 µM; in the test with OVCAR-5 ovarian, greater than 100 µM; in the test on A498 renal, greater than 100 µM; in the test with HOP-92 NSCLC it was greater than 100 µM. This compound gave a TGI in the test on UACC-257 melanoma greater than 100 µM.

In the case of `COc1ccc(-c2c(N)noc2-c2cc(OC)c3c(c2)OCCO3)cc1`, the GI50 with HCT-116 colon is less than 0.01 µM; with LOX IMVI melanoma it was 0.0451 µM; with HS 578T breast it was less than 0.0106 µM; in the test on OVCAR-5 ovarian, 0.0542 µM; in the test on A498 renal, less than 0.01 µM; in the test with HOP-92 NSCLC it was 0.12 µM. Further, the TGI in the test on HCT-116 colon was 6.37 µM; with LOX IMVI melanoma, 24 µM; with HS 578T breast it was greater than 100 µM; in the test on OVCAR-5 ovarian, greater than 100 µM; in the test on A498 renal, 0.303 µM; with HOP-92 NSCLC, greater than 40 µM.

Take `COc1ccc(C2NC(=S)NC3=C2CCOc2c3ccc3ccccc23)cc1` (centres undefined): the GI50 with LOX IMVI melanoma was greater than 100 µM; with HS 578T breast, 47.4 µM; in the test on OVCAR-5 ovarian it was greater than 100 µM; in the test with A498 renal it was 16.6 µM; with NCI-H226 lung, 58.5 µM; in the test on HOP-92 NSCLC, 77.1 µM. The GI50 in the test on UACC-257 melanoma is 16.4 µM. In addition, the TGI with LOX IMVI melanoma, in the test with HS 578T breast, in the test on OVCAR-5 ovarian, in the test with A498 renal, in the test on NCI-H226 lung and in the test with HOP-92 NSCLC was greater than 100 µM throughout. The same compound showed a TGI with UACC-257 melanoma greater than 100 µM.

Turning to `COc1cc2c3c(n(CCCNCCCNCCCN)c(=O)c2cc1OC)-c1cc2c(cc1C3=O)OCO2`, the GI50 is 43 µM with HCT-116 colon; 32.4 µM in the test with LOX IMVI melanoma; greater than 100 µM in the test on HS 578T breast; greater than 100 µM in the test on A498 renal; greater than 100 µM in the test on NCI-H226 lung; greater than 100 µM with HOP-92 NSCLC. In the test on UACC-257 melanoma, the GI50 is greater than 100 µM. Further, the TGI in the test with HCT-116 colon, in the test on LOX IMVI melanoma, in the test on HS 578T breast, in the test with A498 renal, with NCI-H226 lung and in the test on HOP-92 NSCLC was greater than 100 µM in each case. This compound also displayed a TGI with UACC-257 melanoma greater than 100 µM.

Take `CC(C)OP(=O)(O)c1ncc(-c2ccc(C(F)(F)F)cc2)c(NC2CCCCCC2)n1`: the GI50 in the test on HCT-116 colon, with HS 578T breast, in the test on OVCAR-5 ovarian, in the test with A498 renal, with NCI-H226 lung and in the test on UACC-257 melanoma was greater than 100 µM in each case. Also, the TGI with HCT-116 colon, in the test with HS 578T breast, in the test with OVCAR-5 ovarian, with A498 renal, in the test on NCI-H226 lung and with UACC-257 melanoma was greater than 100 µM each time.

With `Cc1cc(NN=C(c2ccc(O)cc2)c2ccc(O)cc2)c([N+](=O)[O-])cc1[N+](=O)[O-]`, the GI50 in the test on HCT-116 colon is 3.73 µM; in the test with LOX IMVI melanoma, 3.8 µM; with HS 578T breast, 5.04 µM; with OVCAR-5 ovarian it was 11.1 µM; in the test with A498 renal it was 9.29 µM; with NCI-H226 lung it was 7.76 µM. In addition, in the test on UACC-257 melanoma, the GI50 was 4.71 µM. In addition, the TGI with HCT-116 colon turned out to be 35.7 µM; in the test with LOX IMVI melanoma, 21.2 µM; in the test with HS 578T breast, 39.8 µM; in the test with OVCAR-5 ovarian, 36.6 µM; in the test on A498 renal, 23.9 µM; in the test with NCI-H226 lung it was 40.1 µM. In addition, the TGI in the test on UACC-257 melanoma stood at 8.29 µM.

For the compound `N#[N+]c1ccc(Nc2ccccc2)cc1`, the GI50 in the test on HCT-116 colon, in the test on LOX IMVI melanoma, in the test with HS 578T breast, with OVCAR-5 ovarian, in the test with A498 renal and with NCI-H226 lung was greater than 50 µg/mL throughout. For the same compound, in the test with UACC-257 melanoma, the GI50 is greater than 50 µg/mL. Besides, the TGI in the test on HCT-116 colon, in the test on LOX IMVI melanoma, with HS 578T breast, in the test on OVCAR-5 ovarian, with A498 renal and in the test on NCI-H226 lung was greater than 50 µg/mL throughout. Further, the TGI in the test on UACC-257 melanoma is greater than 50 µg/mL.

In the case of `O=[N+]([O-])/C=C/c1ccc(Cl)cc1[N+](=O)[O-]`, the GI50 in the test on HCT-116 colon is 1.86 µM; in the test on HS 578T breast, 8.16 µM; in the test on OVCAR-5 ovarian, 4.49 µM; in the test with A498 renal it was 14.5 µM; in the test on NCI-H226 lung it was 2.43 µM; in the test on HOP-92 NSCLC it was 13.2 µM. The GI50 in the test on UACC-257 melanoma is 11.9 µM. Besides, the TGI with HCT-116 colon was 3.67 µM; in the test with HS 578T breast, greater than 100 µM; in the test with OVCAR-5 ovarian, 14.9 µM; with A498 renal it was 27.8 µM; in the test with NCI-H226 lung, 6.96 µM; with HOP-92 NSCLC, 27.5 µM. Besides, the TGI in the test with UACC-257 melanoma came out at 24.9 µM.

As to `COc1ccc(C2=Nn3c(nnc3-n3nc(C)cc3C)SC2)cc1`, the GI50 in the test on HCT-116 colon was 0.0554 µM; with LOX IMVI melanoma it was 0.0694 µM; in the test on OVCAR-5 ovarian it was 0.34 µM; in the test on A498 renal, 0.0303 µM; with HOP-92 NSCLC it was 0.0245 µM. The TGI with HCT-116 colon is greater than 100 µM; with LOX IMVI melanoma, greater than 100 µM; with HS 578T breast, greater than 100 µM; in the test on OVCAR-5 ovarian, greater than 100 µM; in the test on A498 renal, 0.207 µM; with NCI-H226 lung it was greater than 100 µM. In addition, in the test with HOP-92 NSCLC, the TGI is 0.836 µM.
